Earlier results in PMC11768433 (Viruses, 2024).

Experiments:
Parameters in all cases: method as in Ref.35663971
[1] = system: Dengue virus 2(DENV2); conditions: DENV2, Huh7 cells, at 10 μM; ref Ref.35663971
[2] = system: HSV; conditions: Huh7 cells, at 10 μM, ref Ref.35663971
[3] = system: SARS-CoV-2; conditions: SARS-CoV-2, Huh7 cells, at 10 μM; ref Ref.35663971
[4] = system: Vero E6 cells; conditions: ref Ref.35663971

## MGRFKRFRKKFKKLFKKLS [DRAVPe01948, DRAVP database peptide bomidin]
[1]
  inhibition: 50%
[2]
  inhibition: 50%
[3]
  inhibition: 80%
[4]
  CC50: 169.6 µM
